Data reported in patent US20250042900A1 (priority 2022, published 2025).
Structures can show the parent of a compound that is named as a salt. Where two headings read alike, the source gives them in different places.

Key:
[1] = biological target: Adrenergic Receptor β2 (ADRB2) (Homo sapiens, UniProt P07550); assay: cAMP secondary messenger assay, agonist format; assay type: cell-based; details: read-out: EC50 (μM) Agonist/Opener
[2] = biological target: T1, Cannabinoid Receptor 1 (CNR1) (Homo sapiens, UniProt P21554); assay: cAMP secondary messenger assay, antagonist format; assay type: cell-based; details: read-out: IC50 (μM) Antag./Blocker/Inhibitor
AChE = biological target: T2, AChE (Homo sapiens, UniProt P22303); assay: Enzymatic assay AChE; assay type: biochemical; details: inhibitor, read-out: IC50 (μM) Antag./Blocker/Inhibitor
T2 construct: purchased R&D Systems

[3] = biological target: T3, 5-Hydroxytryptamine (Serotonin) Receptor 1A (5-HT1A) (Homo sapiens, UniProt P08908); assay: cAMP secondary messenger assay, antagonist format; assay type: cell-based; details: read-out: IC50 (μM) Antag./Blocker/Inhibitor
T3 construct: host or cells: cAMP Hunter cell line

[4] = biological target: T4, Muscarinic acetylcholine Receptor M3 (CHRM3) (Homo sapiens, UniProt P20309); assay: cell-based; details: Calcium Flux, antagonist, read-out: IC50 (μM) Antag./Blocker/Inhibitor
COX2 = biological target: T5, COX2 (Homo sapiens, UniProt P35354); assay: Enzymatic assay COX2; assay type: biochemical; details: inhibitor, read-out: IC50 (μM) Antag./Blocker/Inhibitor
T5 construct: purchased BPS Bioscience

MAOA = biological target: T6, MAOA (Homo sapiens, UniProt P21397); assay: Enzymatic assay MAOA; assay type: biochemical; details: inhibitor, read-out: IC50 (μM) Antag./Blocker/Inhibitor
T6 construct: purchased Sigma

[5] = biological target: T7, 5-Hydroxytryptamine (Serotonin) Receptor 3A (5-HT3A) (Homo sapiens, UniProt P46098); assay: Ion channel assay, blocker format; assay type: cell-based; details: read-out: IC50 (μM) Antag./Blocker/Inhibitor
T7 construct: expressed in transfected cells

[6] = biological target: T8, Cholecystokinin Receptor A (CCKAR) (Homo sapiens, UniProt P32238); assay: Calcium flux secondary messenger assay, antagonist format; assay type: cell-based; details: read-out: IC50 (μM) Antag./Blocker/Inhibitor
[7] = biological target: T4, Muscarinic acetylcholine Receptor M3 (CHRM3); assay: Calcium flux secondary messenger assay, agonist format; assay type: cell-based; details: read-out: EC50 (μM) Agonist/Opener
[8] = biological target: T9, Histamine Receptor H1 (HRH1) (Homo sapiens, UniProt P35367); assay: as above; assay type: cell-based; details: read-out: EC50 (μM) Agonist/Opener
[9] = system: Gamma-aminobutyric acid Receptor A (GABAA); assay: Ion channel assay, opener format; assay type: cell-based; details: read-out: EC50 (μM) Agonist/Opener
[10] = biological target: T9, Histamine Receptor H1 (HRH1); assay: cell-based; details: Calcium Flux, antagonist, read-out: IC50 (μM) Antag./Blocker/Inhibitor
[11] = biological target: T10, Adenosine Receptor A2A (ADORA2A) (Homo sapiens, UniProt P29274); assay: Calcium flux secondary messenger assay, agonist format; assay type: cell-based; details: read-out: EC50 (μM) Agonist/Opener
[12] = biological target: T1, Cannabinoid Receptor 1 (CNR1); assay: cAMP secondary messenger assay, agonist format; assay type: cell-based; details: read-out: EC50 (μM) Agonist/Opener
[13] = biological target: T11, Cannabinoid Receptor 2 (CNR2) (Homo sapiens, UniProt P34972); assay: cAMP secondary messenger assay, agonist format; assay type: cell-based; details: read-out: EC50 (μM) Agonist/Opener
[14] = biological target: 5-Hydroxytryptamine (Serotonin) Receptor 2B (5-HT2B) (Homo sapiens, UniProt P41595); assay: Calcium flux secondary messenger assay, agonist format; assay type: cell-based; details: read-out: EC50 (μM) Agonist/Opener
[15] = biological target: norepinephrine transporter (Homo sapiens, UniProt P23975); assay: Monoamine transporter uptake assay (Neurotransmitter Transporter Uptake Assay Kit), blocker format
[16] = biological target: Adrenergic Receptor α2A (ADRA2A) (Homo sapiens, UniProt P08913); assay: cAMP secondary messenger assay, antagonist format; assay type: cell-based; details: read-out: IC50 (μM) Antag./Blocker/Inhibitor
[17] = biological target: Opioid Receptor Kappa 1 (OPRK1) (Homo sapiens, UniProt P41145); assay: cAMP secondary messenger assay, agonist format; assay type: cell-based; details: read-out: EC50 (μM) Agonist/Opener
[18] = biological target: T11, Cannabinoid Receptor 2 (CNR2); assay: cAMP secondary messenger assay, antagonist format; assay type: cell-based; details: read-out: IC50 (μM) Antag./Blocker/Inhibitor
[19] = biological target: T8, Cholecystokinin Receptor A (CCKAR); assay: Calcium flux secondary messenger assay, agonist format; assay type: cell-based; details: read-out: EC50 (μM) Agonist/Opener
5-HT1B receptors = biological target: T12, 5-HT1B receptors (Homo sapiens, UniProt P28222); assay: In vitro activity at 5-HT1B receptors, agonist mode (cAMP secondary messenger assay); assay type: cell-based
T12 construct: host or cells: cAMP Hunter cell line

dopamine transporter = dopamine transporter (Homo sapiens, UniProt Q01959); assay: Monoamine transporter uptake assay (Neurotransmitter Transporter Uptake Assay Kit), blocker format
[20] = biological target: Opioid Receptor Mu (OPRM1) (Homo sapiens, UniProt P35372); assay: cell-based; details: cAMP, agonist, read-out: EC50 (μM) Agonist/Opener
[21] = biological target: Nuclear Hormone Glucocorticoid Receptor (GR) (Homo sapiens, UniProt P04150); assay: NHR Protein Interaction assay, antagonist format; assay type: cell-based; details: read-out: IC50 (μM) Antag./Blocker/Inhibitor
[22] = biological target: T10, Adenosine Receptor A2A (ADORA2A); assay: Calcium flux secondary messenger assay, antagonist format; assay type: cell-based; details: read-out: IC50 (μM) Antag./Blocker/Inhibitor
PDE4D2 = biological target: T13, PDE4D2 (Homo sapiens, UniProt Q08499); assay: Enzymatic assay PDE4D2; assay type: biochemical; details: inhibitor, read-out: IC50 (μM) Antag./Blocker/Inhibitor
T13 construct: purchased Signal Chem

[23] = biological target: T14, Insulin Receptor (tyrosine kinase) (INSR) (Homo sapiens, UniProt P06213); assay: Kinase binding assay (KINOMEscan); details: inhibitor, read-out: IC50 (μM) Antag./Blocker/Inhibitor
T14 construct: T7 phage fusion (most assays) or DNA tag for qPCR (the remaining kinases); made in house; host or cells: E. coli (BL21-derived, T7 phage display) or HEK-293

COX1 = biological target: T15, COX1 (Homo sapiens, UniProt P23219); assay: Enzymatic assay COX1; assay type: biochemical; details: inhibitor, read-out: IC50 (μM) Antag./Blocker/Inhibitor
T15 construct: purchased BPS Bioscience

serotonin transporter = biological target: T16, serotonin transporter (Homo sapiens, UniProt P31645); assay: cell-based; details: SERT, blocker, read-out: IC50 (μM) Antag./Blocker/Inhibitor
T16 construct: expressed in transfected cells

[24] = biological target: Arginine Vasopressin Receptor 1A (AVPR1A) (Homo sapiens, UniProt P37288); assay: Calcium flux secondary messenger assay, antagonist format; assay type: cell-based; details: read-out: IC50 (μM) Antag./Blocker/Inhibitor
Chain of Arginine Vasopressin Receptor 1A (AVPR1A) (P37288 whole entry): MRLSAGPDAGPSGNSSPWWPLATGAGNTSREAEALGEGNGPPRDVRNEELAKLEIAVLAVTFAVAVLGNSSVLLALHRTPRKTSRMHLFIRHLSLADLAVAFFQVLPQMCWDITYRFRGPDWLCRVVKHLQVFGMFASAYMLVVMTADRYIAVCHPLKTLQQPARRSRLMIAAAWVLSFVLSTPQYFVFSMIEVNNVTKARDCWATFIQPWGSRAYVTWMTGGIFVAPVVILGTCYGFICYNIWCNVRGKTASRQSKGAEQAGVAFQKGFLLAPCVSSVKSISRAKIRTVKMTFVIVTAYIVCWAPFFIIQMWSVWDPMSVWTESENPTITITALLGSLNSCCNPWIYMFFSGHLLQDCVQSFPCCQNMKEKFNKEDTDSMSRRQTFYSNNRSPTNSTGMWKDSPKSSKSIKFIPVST

T8 sequence (P32238 whole entry): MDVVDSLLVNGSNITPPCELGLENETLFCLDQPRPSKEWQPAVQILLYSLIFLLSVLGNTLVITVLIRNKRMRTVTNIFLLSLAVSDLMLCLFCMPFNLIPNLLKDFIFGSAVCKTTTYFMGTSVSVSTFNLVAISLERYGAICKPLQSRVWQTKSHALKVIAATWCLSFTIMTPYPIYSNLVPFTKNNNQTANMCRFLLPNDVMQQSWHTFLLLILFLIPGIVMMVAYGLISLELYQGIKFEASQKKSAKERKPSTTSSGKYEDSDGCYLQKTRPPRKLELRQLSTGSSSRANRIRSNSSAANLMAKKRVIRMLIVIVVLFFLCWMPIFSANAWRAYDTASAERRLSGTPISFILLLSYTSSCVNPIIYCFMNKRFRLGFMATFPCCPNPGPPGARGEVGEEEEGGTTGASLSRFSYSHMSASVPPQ
T10 sequence (P29274 whole entry): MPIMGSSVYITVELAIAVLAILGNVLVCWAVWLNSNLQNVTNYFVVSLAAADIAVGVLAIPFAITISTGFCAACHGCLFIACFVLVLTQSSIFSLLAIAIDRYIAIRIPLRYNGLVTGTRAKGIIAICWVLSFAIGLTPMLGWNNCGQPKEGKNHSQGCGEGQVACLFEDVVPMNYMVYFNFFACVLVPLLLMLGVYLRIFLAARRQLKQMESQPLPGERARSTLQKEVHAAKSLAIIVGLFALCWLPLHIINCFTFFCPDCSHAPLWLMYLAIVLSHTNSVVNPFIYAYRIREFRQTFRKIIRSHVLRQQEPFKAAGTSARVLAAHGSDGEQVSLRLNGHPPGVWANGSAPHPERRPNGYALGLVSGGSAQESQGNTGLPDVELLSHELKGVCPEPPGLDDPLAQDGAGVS
T9 sequence (P35367 whole entry): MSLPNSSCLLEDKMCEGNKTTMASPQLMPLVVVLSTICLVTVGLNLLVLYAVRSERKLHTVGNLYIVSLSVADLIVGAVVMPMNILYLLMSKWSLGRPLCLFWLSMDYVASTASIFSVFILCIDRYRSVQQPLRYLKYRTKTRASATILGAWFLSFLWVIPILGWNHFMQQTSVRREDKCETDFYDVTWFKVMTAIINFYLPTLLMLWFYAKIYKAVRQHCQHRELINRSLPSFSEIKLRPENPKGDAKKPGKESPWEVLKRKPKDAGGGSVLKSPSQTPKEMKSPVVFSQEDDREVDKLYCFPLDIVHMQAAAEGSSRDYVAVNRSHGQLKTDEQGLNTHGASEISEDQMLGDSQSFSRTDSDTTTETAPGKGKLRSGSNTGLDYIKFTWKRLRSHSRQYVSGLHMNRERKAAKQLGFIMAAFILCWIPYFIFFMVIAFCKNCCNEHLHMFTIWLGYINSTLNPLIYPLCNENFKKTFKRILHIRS
T4 sequence (P20309 whole entry): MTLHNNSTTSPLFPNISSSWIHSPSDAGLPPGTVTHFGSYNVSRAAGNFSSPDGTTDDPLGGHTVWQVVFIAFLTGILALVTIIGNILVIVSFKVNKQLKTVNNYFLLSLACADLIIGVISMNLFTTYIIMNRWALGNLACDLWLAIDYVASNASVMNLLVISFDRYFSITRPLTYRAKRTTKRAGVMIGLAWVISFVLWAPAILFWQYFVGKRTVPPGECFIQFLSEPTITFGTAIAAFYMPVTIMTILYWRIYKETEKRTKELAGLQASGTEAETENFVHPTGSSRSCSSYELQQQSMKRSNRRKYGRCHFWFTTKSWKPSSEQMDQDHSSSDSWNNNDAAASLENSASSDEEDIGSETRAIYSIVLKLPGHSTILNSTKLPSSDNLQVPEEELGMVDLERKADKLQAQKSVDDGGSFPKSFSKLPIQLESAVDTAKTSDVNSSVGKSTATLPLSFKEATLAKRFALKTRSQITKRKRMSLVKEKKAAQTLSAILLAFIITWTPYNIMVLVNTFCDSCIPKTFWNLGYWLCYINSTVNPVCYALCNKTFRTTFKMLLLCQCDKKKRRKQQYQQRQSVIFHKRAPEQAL
T1 sequence (P21554 whole entry): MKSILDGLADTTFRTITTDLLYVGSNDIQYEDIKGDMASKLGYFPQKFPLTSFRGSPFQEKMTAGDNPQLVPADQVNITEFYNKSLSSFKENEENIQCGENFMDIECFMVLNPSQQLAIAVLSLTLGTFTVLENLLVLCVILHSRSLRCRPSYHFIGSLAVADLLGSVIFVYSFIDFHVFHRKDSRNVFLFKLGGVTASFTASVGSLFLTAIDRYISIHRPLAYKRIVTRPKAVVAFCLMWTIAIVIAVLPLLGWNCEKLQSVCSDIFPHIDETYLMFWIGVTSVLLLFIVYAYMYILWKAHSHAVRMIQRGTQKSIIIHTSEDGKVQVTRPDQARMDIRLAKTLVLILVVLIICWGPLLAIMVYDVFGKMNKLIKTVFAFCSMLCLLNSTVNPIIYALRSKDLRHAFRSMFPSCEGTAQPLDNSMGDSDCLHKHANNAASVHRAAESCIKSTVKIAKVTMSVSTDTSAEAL
T11 sequence (P34972 whole entry): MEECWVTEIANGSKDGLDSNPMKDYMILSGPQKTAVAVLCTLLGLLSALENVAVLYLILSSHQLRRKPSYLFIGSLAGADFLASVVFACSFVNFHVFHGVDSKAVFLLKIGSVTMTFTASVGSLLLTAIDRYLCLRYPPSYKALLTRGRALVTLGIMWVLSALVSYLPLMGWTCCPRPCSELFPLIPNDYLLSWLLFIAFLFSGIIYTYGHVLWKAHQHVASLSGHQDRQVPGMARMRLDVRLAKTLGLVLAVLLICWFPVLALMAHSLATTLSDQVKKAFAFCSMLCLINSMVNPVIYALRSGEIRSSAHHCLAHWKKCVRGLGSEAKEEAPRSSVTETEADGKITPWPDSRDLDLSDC
T12 sequence (P28222 whole entry): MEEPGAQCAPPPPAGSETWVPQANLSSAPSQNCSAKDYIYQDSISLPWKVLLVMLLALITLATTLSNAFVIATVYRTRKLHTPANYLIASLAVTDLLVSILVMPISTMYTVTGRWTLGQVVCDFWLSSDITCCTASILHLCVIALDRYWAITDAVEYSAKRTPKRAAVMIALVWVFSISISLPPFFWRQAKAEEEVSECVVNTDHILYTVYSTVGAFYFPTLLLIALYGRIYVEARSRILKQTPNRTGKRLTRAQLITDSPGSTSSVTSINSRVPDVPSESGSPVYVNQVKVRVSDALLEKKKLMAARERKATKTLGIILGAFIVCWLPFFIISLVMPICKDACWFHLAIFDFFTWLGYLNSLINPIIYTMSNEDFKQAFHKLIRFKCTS
Chain of norepinephrine transporter (P23975 whole entry): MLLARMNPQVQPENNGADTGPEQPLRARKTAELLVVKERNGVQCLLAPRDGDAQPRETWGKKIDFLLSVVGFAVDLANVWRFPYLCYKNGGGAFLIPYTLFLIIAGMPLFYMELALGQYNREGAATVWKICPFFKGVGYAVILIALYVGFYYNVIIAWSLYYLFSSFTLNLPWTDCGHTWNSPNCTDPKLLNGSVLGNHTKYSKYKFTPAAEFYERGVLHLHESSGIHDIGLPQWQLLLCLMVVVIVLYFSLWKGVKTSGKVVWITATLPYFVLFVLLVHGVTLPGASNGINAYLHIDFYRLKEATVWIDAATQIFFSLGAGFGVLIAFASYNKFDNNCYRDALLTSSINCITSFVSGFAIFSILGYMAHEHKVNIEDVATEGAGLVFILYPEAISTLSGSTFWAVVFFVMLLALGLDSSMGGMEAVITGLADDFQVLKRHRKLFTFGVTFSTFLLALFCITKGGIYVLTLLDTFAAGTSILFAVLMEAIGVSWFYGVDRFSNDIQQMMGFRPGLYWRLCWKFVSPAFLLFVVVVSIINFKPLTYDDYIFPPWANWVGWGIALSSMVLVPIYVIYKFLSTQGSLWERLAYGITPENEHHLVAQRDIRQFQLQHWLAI
T15 sequence (P23219 24-599): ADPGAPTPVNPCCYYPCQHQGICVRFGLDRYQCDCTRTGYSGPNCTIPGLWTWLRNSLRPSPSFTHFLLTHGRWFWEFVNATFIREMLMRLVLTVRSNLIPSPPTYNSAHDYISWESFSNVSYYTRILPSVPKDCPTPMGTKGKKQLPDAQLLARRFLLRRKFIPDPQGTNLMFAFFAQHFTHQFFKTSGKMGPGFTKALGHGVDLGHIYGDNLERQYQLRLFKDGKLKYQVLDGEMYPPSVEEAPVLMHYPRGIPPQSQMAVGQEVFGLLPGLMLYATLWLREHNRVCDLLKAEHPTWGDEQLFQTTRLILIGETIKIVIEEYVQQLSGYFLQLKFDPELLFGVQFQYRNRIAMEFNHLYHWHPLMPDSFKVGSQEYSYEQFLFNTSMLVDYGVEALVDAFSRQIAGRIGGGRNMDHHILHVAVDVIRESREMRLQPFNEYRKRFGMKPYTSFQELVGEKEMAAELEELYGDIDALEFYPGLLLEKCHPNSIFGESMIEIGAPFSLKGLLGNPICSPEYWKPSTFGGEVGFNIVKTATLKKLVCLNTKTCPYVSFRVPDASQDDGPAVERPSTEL

Compound: CN(C)CCc1ccn2ccccc12 [28-12 oxalate, 2-(indolizin-1-yl)-N, N-dimethylethan-1-amine oxalate]
- EC50 [1]: > 30 µM
- IC50 [2]: > 30 µM
- IC50 (AChE): > 30 µM
- IC50 [3]: > 30 µM
- IC50 [4]: > 30 µM
- IC50 (COX2): > 30 µM
- IC50 (MAOA): 7.25 µM
- IC50 [5]: 7.82 µM
- IC50 [6]: > 30 µM
- EC50 [7]: > 30 µM
- EC50 [8]: > 30 µM
- EC50 [9]: > 30 µM
- IC50 [10]: 9.27 µM
- EC50 [11]: > 30 µM
- EC50 [12]: > 30 µM
- EC50 [13]: > 30 µM
- EC50 [14]: > 30 µM
- IC50 [15]: > 30 µM
- IC50 [16]: > 30 µM
- EC50 [17]: > 30 µM
- IC50 [18]: > 30 µM
- EC50 [19]: > 30 µM
- EC50 (5-HT1B receptors; 5-HT1B, cAMP, read-out: EC50 (μM) Agonist/Opener): 0.143 µM
- EC50 (5-HT1B receptors; EC50, agonism of 5-HT1B receptors, ten concentrations up to 30 μM): ~0.143 µM
- IC50 (dopamine transporter): > 30 µM
- EC50 [20]: > 30 µM
- IC50 [21]: 17.1 µM
- IC50 [22]: > 30 µM
- IC50 (PDE4D2): > 30 µM
- IC50 [23]: > 30 µM
- IC50 (COX1): 5.13 µM
- IC50 (serotonin transporter): > 30 µM
- IC50 [24]: > 30 µM
